One assay deals with MDA-MB-435. Description: Cytotoxicity against human MDA-MB-435 cells after 72 hrs by MTT assay. The assay is classed as functional, cell-based. In general terms: Formazan colour is commonly taken as a measure of viable cells.
The nature of assay [1]: Cytotoxicity against human HL60 cells after 72 hrs by MTT assay. In kind it is functional, cell-based, HL-60.
The nature of assay [2]: Cytotoxicity against human HCT8 cells after 72 hrs by MTT assay. The assay is classed as functional, cell-based, HCT-8.
Assay [3] in a line: Cytotoxicity against human SF295 cells after 72 hrs by MTT assay. The assay is classed as functional, cell-based, SF-295.

Our source for the IC50 values is ChEMBL document CHEMBL3822389, “New insights into 3-(aminomethyl)naphthoquinones: Evaluation of cytotoxicity, electrochemical behavior and search for structure-activity correlation” (Bioorg Med Chem Lett, 2016).

The structures appear in SMILES notation.

In the case of `CC(C)(C)OC(=O)NCCCNC(C1=C(O)C(=O)c2ccccc2C1=O)c1ccccc1O` (stereo not given), the IC50 (usually the concentration needed to halve the response being measured) in the assay on MDA-MB-435 (Homo sapiens, MDA-MB-435, 72 h) is 37.8 µM; in assay [1] (Homo sapiens, HL-60, 72 h) it was 17.2 µM; in assay [2] (Homo sapiens, HCT-8, 72 h) it was 22.7 µM; in assay [3] (Homo sapiens, SF-295, 72 h), 26 µM.
In the same order, the values of `CCCCCCCNC(C1=C(O)C(=O)c2ccccc2C1=O)c1cc(Br)ccc1O` (stereo not given) are over 40 µM, over 40 µM, over 40 µM and over 40 µM.
In the same order, the values of `CC(C)(C)OC(=O)NCCCNC(C1=C(O)C(=O)c2ccccc2C1=O)c1ccc([N+](=O)[O-])cc1` (stereo not given) are over 40 µM, over 40 µM, over 40 µM and over 40 µM.
For `Cc1ccc(O)c(C(NCc2ccccc2)C2=C(O)C(=O)c3ccccc3C2=O)c1` (stereo not given), the IC50 with MDA-MB-435 (Homo sapiens, MDA-MB-435, 72 h) is 18.7 µM; in assay [2] (Homo sapiens, HCT-8, 72 h), 12.1 µM; in assay [3] (sf-295), 14.4 µM.
For `CCCCCCCNC(C1=C(O)C(=O)c2ccccc2C1=O)c1ccc([N+](=O)[O-])cc1` (stereo not given), the IC50 in the assay on MDA-MB-435 (Homo sapiens, MDA-MB-435, 72 h) is over 40 µM; in assay [1] (Homo sapiens, HL-60, 72 h), over 40 µM; in assay [2] (Homo sapiens, HCT-8, 72 h) it was over 40 µM; in assay [3] (Homo sapiens, SF-295, 72 h), over 40 µM.
Take `O=C1C(O)=C(C(NCc2ccccn2)c2ccccc2)C(=O)c2ccccc21` (stereo not given): the half-inhibitory concentration (IC50) in the assay with MDA-MB-435 (mda-mb-435) is 3.6 µM; in assay [1] (hl-60), 5.4 µM; in assay [2] (hct-8), 6.3 µM; in assay [3] (sf-295), 13.5 µM.
Regarding `CCCCCCCCCCNC(C1=C(O)C(=O)c2ccccc2C1=O)c1cc(Br)ccc1O` (stereo not given), the IC50 in the assay with MDA-MB-435 (Homo sapiens, MDA-MB-435, 72 h) is over 40 µM; in assay [1] (Homo sapiens, HL-60, 72 h), over 40 µM; in assay [2] (Homo sapiens, HCT-8, 72 h), over 40 µM; in assay [3] (Homo sapiens, SF-295, 72 h), over 40 µM.
Regarding `CCCCNC(C1=C(O)C(=O)c2ccccc2C1=O)c1cc(Br)ccc1O` (stereo not given), the IC50 with MDA-MB-435 (Homo sapiens, MDA-MB-435, 72 h) is over 40 µM; in assay [1] (hl-60) it was over 40 µM; in assay [2] (hct-8), over 40 µM; in assay [3] (sf-295), over 40 µM.
For `O=C1C(O)=C(C(NCCCCl)c2cccc(O)c2)C(=O)c2ccccc21` (stereo not given), the IC50 is over 40 µM in the assay with MDA-MB-435 (Homo sapiens, MDA-MB-435, 72 h); over 40 µM in assay [1] (Homo sapiens, HL-60, 72 h); over 40 µM in assay [2] (Homo sapiens, HCT-8, 72 h); over 40 µM in assay [3] (Homo sapiens, SF-295, 72 h).
Regarding `O=C1C(O)=C(C(NCCCCl)c2ccccc2O)C(=O)c2ccccc21` (stereo not given), the IC50 came to 30.1 µM in the assay with MDA-MB-435 (Homo sapiens, MDA-MB-435, 72 h); 8.1 µM in assay [1] (Homo sapiens, HL-60, 72 h); 17.7 µM in assay [2] (Homo sapiens, HCT-8, 72 h); 17.5 µM in assay [3] (Homo sapiens, SF-295, 72 h).
In the same order, the values of `CC(C)(C)OC(=O)NCCNC(C1=C(O)C(=O)c2ccccc2C1=O)c1ccccc1` (stereo not given) are over 40 µM, over 40 µM, over 40 µM and over 40 µM.
In the same order, the values of `CC(C)(C)OC(=O)NCCNC(C1=C(O)C(=O)c2ccccc2C1=O)c1ccc([N+](=O)[O-])cc1` (stereo not given) are over 40 µM, over 40 µM, over 40 µM and over 40 µM.
Regarding `CCCCNC(C1=C(O)C(=O)c2ccccc2C1=O)c1ccc([N+](=O)[O-])cc1` (stereo not given) [listing 1 of 2 here], the IC50 in the assay with MDA-MB-435 (Homo sapiens, MDA-MB-435, 72 h) is over 40 µM; in assay [2] (Homo sapiens, HCT-8, 72 h) it was over 40 µM.
`O=C1C(O)=C(C(NCc2ccccc2)c2ccccc2O)C(=O)c2ccccc21` (stereo not given): the IC50 was 18.3 µM in the assay on MDA-MB-435 (Homo sapiens, MDA-MB-435, 72 h); 4.6 µM in assay [1] (hl-60); 14.4 µM in assay [2] (Homo sapiens, HCT-8, 72 h); 11.6 µM in assay [3] (sf-295).
On to `O=C1C(O)=C(CNCCCCl)C(=O)c2ccccc21`, for which the IC50 with MDA-MB-435 (Homo sapiens, MDA-MB-435, 72 h) was over 40 µM; in assay [1] (Homo sapiens, HL-60, 72 h) it was over 40 µM; in assay [2] (Homo sapiens, HCT-8, 72 h), over 40 µM; in assay [3] (Homo sapiens, SF-295, 72 h), over 40 µM.
Take `CCCCCCCCCCNC(C1=C(O)C(=O)c2ccccc2C1=O)c1cccc(O)c1` (stereo not given): the IC50 is 31.1 µM in the assay with MDA-MB-435 (Homo sapiens, MDA-MB-435, 72 h); 11.9 µM in assay [1] (Homo sapiens, HL-60, 72 h); 25.8 µM in assay [2] (Homo sapiens, HCT-8, 72 h); over 40 µM in assay [3] (Homo sapiens, SF-295, 72 h).
With `CCCCNC(C1=C(O)C(=O)c2ccccc2C1=O)c1ccccc1O` (stereo not given), the IC50 in the assay with MDA-MB-435 (mda-mb-435) is 25.6 µM; in assay [1] (hl-60) it was 6.5 µM; in assay [2] (hct-8), 20.5 µM; in assay [3] (Homo sapiens, SF-295, 72 h), 33.3 µM.
Take `O=C1C(O)=C(C(NCc2ccco2)c2ccccn2)C(=O)c2ccccc21` (stereo not given): the IC50 in the assay on MDA-MB-435 (Homo sapiens, MDA-MB-435, 72 h) was over 40 µM; in assay [1] (Homo sapiens, HL-60, 72 h), 5.8 µM; in assay [2] (Homo sapiens, HCT-8, 72 h), 4.4 µM; in assay [3] (Homo sapiens, SF-295, 72 h) it was 3.3 µM.
In the same order, the values of `CCCCNC(C1=C(O)C(=O)c2ccccc2C1=O)c1ccccn1` (stereo not given) are over 40 µM, over 40 µM, 12.5 µM and 9.5 µM.
Turning to `CCCCNC(C1=C(O)C(=O)c2ccccc2C1=O)c1ccc([N+](=O)[O-])cc1` (stereo not given) [listing 2 of 2 here], the IC50 in assay [1] (Homo sapiens, HL-60, 72 h) was over 40 µM; in assay [3] (Homo sapiens, SF-295, 72 h) it was over 40 µM.
For the compound `CCCCCCCNC(C1=C(O)C(=O)c2ccccc2C1=O)c1ccccc1O` (stereo not given), the half-maximal inhibitory concentration (IC50) in the assay on MDA-MB-435 (Homo sapiens, MDA-MB-435, 72 h) amounted to 33.3 µM; in assay [1] (Homo sapiens, HL-60, 72 h), 7.7 µM; in assay [2] (Homo sapiens, HCT-8, 72 h), 19.7 µM; in assay [3] (Homo sapiens, SF-295, 72 h), 18.9 µM.
Consider `CCCCNC(C1=C(O)C(=O)c2ccccc2C1=O)c1ccc(Cl)cc1Cl` (stereo not given), for which the IC50 is over 40 µM in assay [1] (Homo sapiens, HL-60, 72 h) and over 40 µM in assay [3] (Homo sapiens, SF-295, 72 h).
Take `CCCCCCCNC(C1=C(O)C(=O)c2ccccc2C1=O)c1ccccn1` (stereo not given): the IC50 is over 40 µM with MDA-MB-435 (Homo sapiens, MDA-MB-435, 72 h); 1.8 µM in assay [1] (Homo sapiens, HL-60, 72 h); 1.6 µM in assay [2] (Homo sapiens, HCT-8, 72 h); 1 µM in assay [3] (Homo sapiens, SF-295, 72 h).
